The test system of series [1] is 4175-Luc+ cells. The experiment in a line: Cell viability, MTT assay. The note with it: 17 h, ± SEM, 3 experiments. It is filed as cell-based, human. The protocol:
(§1) MCF7 cells were plated for Trypan exclusion assays at 1.0 × 10^6 cells/well in 6-well plates and treated with MN58b or JAS239, synthesized in house. At 17 h, cells were collected by trypsinization, stained with Trypan Blue, and counted using a Neubauer hemocytometer. For 3-(4,5-Dimethylthiazol-2-yl)-2,5-diphenyltetrazolium bromide (MTT) assays, cells in 96-well plates (7.5 × 10^4 cells/well) were treated with JAS239 or MN58b overnight, and stained with 20 μL of 5 mg/mL MTT (Sigma-Aldrich) for 2 h, lysed with DMSO and scanned for absorbance using a SpectraMax M5 plate reader (Molecular Devices) at 550 nm, subtracting background absorbance at 690 nm from each sample.
(§2) Supplementary Figure 2: Breast cancer cell viability in response to ChoK inhibitors. (A–D) Cell viability measurements via […]
(§3) (A) or JAS239 (B). MTT assays were performed on MDA-MB-231 and 4175-Luc+ (C, D) cells exposed to MN58b (C) or JAS239 (D).
(§4) Values are reported relative to untreated control groups and represent ± SEM for 3 separate experiments. At higher JAS239 concentrations, the MTT assay was used as JAS239 interfered with Trypan blue counting. There was no overlap in absorbance readings between the MTT formazan product and JAS239.
(§5) (1 picture or pasted object on this page, not shown here)
For orientation: Formazan colour is commonly taken as a measure of viable cells.

Series [2] has as its system MDA-MB-231 cells. The experiment in a line: Cell viability, MTT assay. The class given is cell-based, human. To be noted: 17 h, ± SEM, 3 experiments. The protocol: as §1, §2, §3, §4, §5
For series [3], the system named is MDA-MB-231 tumors. The experiment in a line: Histopathology of treated tumors (H&E, Ki67, caspase-3). The class given is in vivo, mouse. The note with it: 5 days i.p.; MN58b 2 mg/kg, JAS239 4 mg/kg; vs control. The protocol: (§6) A cohort of 15 mice was inoculated with MDA-MB-231 cells. When a volume of 300 μL was reached, tumors were scanned using MRS. Tumor volumes were measured using T2-weighted images. The animals were separated into treatment groups, and for 5 consecutive days each group was injected i.p. with 100 μL of DMSO/saline vehicle (n = 5), 2 mg/kg MN58b (n = 4), or 4 mg/kg JAS239 (n = 3). Initial cohort sizes were 5 per condition, but some animals had to be removed from the study because the treatment was so effective that we were unable to place voxels within post-treatment tumors that were too small. Follow-up MRI/MRS scanning was performed on day 7 to assess tumor growth inhibition and changes in metabolite levels. After imaging, blood was collected into heparin-coated tubes by cardiac puncture. Resected tumors were embedded in Optimum Cryo-Temperature (Sakura Finetek), flash-frozen in liquid nitrogen, and stored at –80 °C. Blood samples were submitted to the Ryan Veterinary Clinic Diagnostic labs for toxicology.
Hematoxylin and eosin staining and immunohistochemistry was performed as described previously. Caspase-3 (R&D Systems AF835) and Ki67 (Abcam ab16667) antibody staining was performed on a Bond Max automated staining system (Leica Microsystems) using the Bond Intense R staining kit (Leica Microsystems DS9263). An Aperio Scan Scope OS (Aperio Technology) was used to scan slides, and the Image Scope nuclear staining algorithm (version 9; Aperio Technology) was used to quantify Ki67 and caspase-3 positive nuclei in representative regions of each slide.

The nature of series [4]: Blood toxicology after the 5-day treatment. It is filed as in vivo. To be noted: 5 days i.p.; MN58b 2 mg/kg, JAS239 4 mg/kg. The protocol:
as §6
Supplementary Figure 6: Both ChoKα inhibitors show early signs of tumor growth inhibition and apoptosis, however JAS239 is better tolerated in animals. (A) Vehicle-treated tumors increased in size during the treatment regimen, whereas the tumor volumes of MN58b and JAS239 treated mice were unchanged. […]

Series [5] deals with MCF7-CK+ cells. The experiment in a line: Cell viability, Trypan blue exclusion. It is filed as cell-based, human. The note with it: 17 h, ± SEM, 3 experiments. The protocol: as §1, §2, §3, §4, §5
Series [6] deals with MCF7-EV cells. The series is described as follows: Cell viability, Trypan blue exclusion. It is filed as cell-based, human. To be noted: 17 h, ± SEM, 3 experiments. The protocol: as §1, §2, §3, §4, §5
Series [7] concerns the target ChoKα (Homo sapiens, UniProt P35790). The series is described as follows: ChoKα activity assay (14C-choline phosphorylation to 14C-PC in cells). The class given is cell-based. Set-up: endogenous in cells; host or cells: MCF7-EV, MCF7-CK+ (stably overexpressing ChoK), MDA-MB-231, 4175-Luc+. To be noted: analyzed after 2 h, ± SEM, 3 experiments, read-out: IC50 (14C-PC production). The protocol: Cells in 6-well plates (1.0 × 10^6 cells/well) were incubated for 24 h then treated with JAS239 or MN58b. After 1 h, cells were spiked for 1 h with 0.5 μCi/mL [methyl-^14C]-choline (PerkinElmer) and fixed with trichloroacetic acid. Aqueous cellular extracts were separated by thin layer chromatography (TLC) and the ^14C-PC production measured by autoradiography on a Fujifilm FLA-7000 using previously described methods. […]
Supplementary Figure 1: Characterization of ChoKα in a panel of human breast cancer cell lines. (A) Determination of
ChoKα expression by Western blot confirms elevated ChoKα protein found in MCF7-CK+ cells. (B) Conversion of 14C-choline to 14C-PC
follows the pattern expected from ChoKα expression levels in (A). (C–F) Dose-response curves comparing the effect of MN58b ( C, D) or
JAS239 (E, F) on 14C-choline phosphorylation in MCF7-EV and MCF7-CK+ cells (C, E) or MDA-MB-231 and 4175-Luc+ cells (D, F).
Values are reported as a percentage of the untreated EV group (for MCF7 cells) or untreated MDA-MB-231 group (for MDA-MB-231 and
4175-Luc+), and represent ± SEM for 3 separate experiments.

By EC50 is commonly meant the concentration needed to bring the measured effect to its halfway point. Usually IC50 stands for the midpoint of a concentration-inhibition curve.

Like-named read-outs stand apart in the source and are kept apart here.

Sequence of ChoKα (P35790 whole entry): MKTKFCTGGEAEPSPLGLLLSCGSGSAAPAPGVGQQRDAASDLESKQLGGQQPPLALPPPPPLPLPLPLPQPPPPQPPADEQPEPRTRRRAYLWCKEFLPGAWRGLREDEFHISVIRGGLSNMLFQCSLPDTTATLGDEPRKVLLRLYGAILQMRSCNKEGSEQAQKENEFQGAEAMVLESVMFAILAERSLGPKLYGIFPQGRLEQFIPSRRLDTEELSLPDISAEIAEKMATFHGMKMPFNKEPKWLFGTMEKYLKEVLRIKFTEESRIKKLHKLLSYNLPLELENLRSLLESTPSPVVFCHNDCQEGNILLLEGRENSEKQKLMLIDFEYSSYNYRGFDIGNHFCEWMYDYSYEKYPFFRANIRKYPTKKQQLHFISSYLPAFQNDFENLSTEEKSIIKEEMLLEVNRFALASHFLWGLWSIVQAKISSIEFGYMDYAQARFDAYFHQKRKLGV

With `CC1(C)C(=C/C=C/C=C/C=C/C2=[N+](CCO)c3ccccc3C2(C)C)N(CCO)c2ccccc21` [JAS239], the EC50 worked out at 35 ± 21.6 µM in series [1], 27.2 ± 7.9 µM in series [2], 5.33 ± 0.84 µM in series [5] and 4.04 ± 0.55 µM in series [6]. Besides, the Caspase-3 levels entry in series [3] is given as “higher caspase-3 levels”. For the same molecule, the “Cell density (H&E)” value in series [3] is “significant reduction in cell density”. Further, the “Percentage of Ki67-positive cells” value in series [3] is listed as “significantly reduced”. Moreover, the Toxicology entry in series [4] was “No observable or measurable toxicity”. Also, the IC50 in series [7] (4175-Luc+ cells) was determined as 9.89 ± 0.24 µM; in series [7] (MCF7-CK+ cells), 10.3 ± 2.48 µM; in series [7] (MCF7-EV cells), 11.1 ± 5.64 µM; in series [7] (MDA-MB-231 cells) it was 9.92 ± 0.22 µM.
Consider MN58b [reference compound], for which the concentration giving a half-maximal response (EC50) in series [1] was found to be 20.7 ± 6.4 µM; in series [2], 14.3 ± 4.6 µM; in series [5], 6.86 ± 0.43 µM; in series [6] it was 3.29 ± 0.48 µM. In addition, the Caspase-3 levels entry in series [3] was “higher caspase-3 levels”. Also, the “Cell density (H&E)” value in series [3] is listed as “significant reduction in cell density”. In series [3], the “Percentage of Ki67-positive cells” value is “significantly reduced”. Also, the Toxicology result in series [4] is given as “elevation of blood urea nitrogen”. Also, the IC50 in series [7] (4175-Luc+ cells) was found to be 4.59 ± 0.55 µM; in series [7] (MCF7-CK+ cells), 2.36 ± 0.28 µM; in series [7] (MCF7-EV cells), 3.85 ± 0.42 µM; in series [7] (MDA-MB-231 cells), 4.36 ± 1.37 µM.

Source of the values: PMC5369982, “Near infrared fluorescent imaging of choline kinase alpha expression and inhibition in breast tumors” (Oncotarget, 2017).
